Experiments:
(α4)3(β2)2 nAChR = biological target: T1, (α4)3(β2)2 nAChR (Homo sapiens, UniProt P17787+P43681); test: Two-electrode voltage-clamp of ACh-induced currents in Xenopus oocytes; assay type: cell-based
T1 construct: expressed in transfected cells; host or cells: Xenopus laevis oocytes injected with cRNA
Method: (§1) To begin to characterize LY2087101 interaction with the heteropentameric α4β2 nAChRs, we examined the selectivity of LY2087101 for the two α4β2 nAChR isoforms; high-agonist sensitivity (α4)2(β2)3 and low-agonist sensitivity (α4)3(β2)2 nAChRs. Xenopus oocytes were injected with α4 and β2 subunits RNAs at ratios 8:1 and 1:8 to favor expression of (α4)3(β2)2 and (α4)2(β2)3 nAChRs, respectively.
(§2) Ovarian lobules were surgically harvested from oocytes-positive female Xenopus laevis (NASCO, Fort Atkinson, WI) according to an animal use protocol approved by the Texas A&M Health Sciences Center Institutional Animals Care and Use Committee. The Texas A&M Health Sciences Center Research Facility is registered as an animal research facility with the United States Department of Agriculture and is fully accredited by the American Association for Accreditation of Laboratory Animal Care (AAALAC). For oocytes defolliculation, ovarian lobes were treated with 3 mg/ml collagenase type 2 (Worthington Biomedical, Lakewood, NJ) in Ca + 2-free buffer (85 mM NaCl, 2.5 mM KCl, 1 mM MgCl2, 5 mM HEPES, pH 7.6). Collagenase treatment was allowed to proceed for 3 hours at room temperature with gentle shaking then oocytes were washed several times with buffer to remove collagenase then with ND96-gentamicine buffer. Healthy Stage V and VI oocytes were visually selected and maintained at 18 °C in modified ND96-gentamicine buffer (96 mM NaCl, 2 mM KCl, 1.8 mM CaCl2, 1 mM MgCl2, 5 mM HEPES, 50 µg/ml gentamicin, pH 7.6). Oocytes were injected with 50–100 ng of the desired nAChR subunits cRNA mix at ratios of 8α:1β or 1α:8β to express nAChRs with subunit stoichiometries of 3α:2β (low agonist sensitivity) or 2α:3β (high agonist sensitivity), respectively.
(§3) Oocytes were continuously perfused with recording buffer (100 mM NaCl, 2 mM KCl, 1 mM CaCl2, 0.8 mM MgCl2, 1 mM EGTA, 10 mM Hepes, pH 7.5) except during periods of drug applications.

(α4)2(β2)3 nAChR = biological target: T2, (α4)2(β2)3 nAChR (Homo sapiens, UniProt P17787+P43681); test: as above; assay type: cell-based
T2 construct: expressed in transfected cells; host or cells: Xenopus laevis oocytes injected with cRNA
T2 sequence (P43681 29-627 limits assumed): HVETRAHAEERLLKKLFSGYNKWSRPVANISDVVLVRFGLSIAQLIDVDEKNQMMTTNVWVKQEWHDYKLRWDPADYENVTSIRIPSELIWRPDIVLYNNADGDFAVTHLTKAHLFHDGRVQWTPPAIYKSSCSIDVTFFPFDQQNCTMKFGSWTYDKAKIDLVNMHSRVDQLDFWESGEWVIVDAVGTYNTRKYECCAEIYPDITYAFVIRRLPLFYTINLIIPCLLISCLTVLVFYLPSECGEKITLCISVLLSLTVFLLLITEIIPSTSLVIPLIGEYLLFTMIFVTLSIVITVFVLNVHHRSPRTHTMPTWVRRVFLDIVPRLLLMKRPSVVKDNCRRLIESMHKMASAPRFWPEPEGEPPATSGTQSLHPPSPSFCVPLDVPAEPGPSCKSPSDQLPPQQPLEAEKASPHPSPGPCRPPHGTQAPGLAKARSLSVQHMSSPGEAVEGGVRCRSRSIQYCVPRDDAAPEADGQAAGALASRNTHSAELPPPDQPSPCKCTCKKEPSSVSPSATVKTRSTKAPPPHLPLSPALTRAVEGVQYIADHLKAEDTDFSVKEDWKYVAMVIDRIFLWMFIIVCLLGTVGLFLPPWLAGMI
T2 sequence (P17787 26-502): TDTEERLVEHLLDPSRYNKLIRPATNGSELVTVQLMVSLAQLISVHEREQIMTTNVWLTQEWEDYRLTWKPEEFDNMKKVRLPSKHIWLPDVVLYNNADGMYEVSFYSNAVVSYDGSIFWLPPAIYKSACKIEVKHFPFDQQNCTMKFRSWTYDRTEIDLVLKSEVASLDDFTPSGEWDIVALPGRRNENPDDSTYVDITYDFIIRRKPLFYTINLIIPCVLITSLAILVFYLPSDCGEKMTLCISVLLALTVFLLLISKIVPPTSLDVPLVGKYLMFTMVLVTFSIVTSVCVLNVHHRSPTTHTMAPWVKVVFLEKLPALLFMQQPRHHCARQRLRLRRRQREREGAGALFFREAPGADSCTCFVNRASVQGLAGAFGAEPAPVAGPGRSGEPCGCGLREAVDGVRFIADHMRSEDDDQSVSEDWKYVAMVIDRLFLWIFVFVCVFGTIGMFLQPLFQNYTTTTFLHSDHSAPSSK
Method: as §1, §2, §3

[1] = ACh alone (control), normalized to 1 mM ACh
[2] = in the presence of 1 µM LY2087101

T1 sequence (P43681 29-627 limits assumed): as the sequence (P43681 29-627 limits assumed) above
T1 sequence (P17787 26-502): as the sequence (P17787 26-502) above

CC(=O)OCC[N+](C)(C)C [ACh, Acetylcholine chloride]
ACh h (Hill coefficient) ((α4)3(β2)2 nAChR; ACh alone (control)): 0.66 ± 0.06
ACh Imax ((α4)3(β2)2 nAChR; [1]): 117 ± 6%
ACh h (Hill coefficient) ((α4)3(β2)2 nAChR; [2]): 0.7 ± 0.1
ACh h (Hill coefficient) ((α4)2(β2)3 nAChR; ACh alone (control)): 1.2 ± 0.03
ACh Imax ((α4)2(β2)3 nAChR; [1]): 100 ± 1%
ACh h (Hill coefficient) ((α4)2(β2)3 nAChR; [2]): 1.0 ± 0.04

Reference: paper PMC5775429, “LY2087101 and dFBr share transmembrane binding sites in the (α4)3(β2)2 Nicotinic Acetylcholine Receptor” (Scientific Reports, 2018)
